Source: ChEMBL document CHEMBL1649515, “Heteroresistance to fluconazole in Cryptococcus neoformans is intrinsic and associated with virulence” (2009)
Activity calls are given as the source filed them. No cut-off for these calls is given here.

How the values were obtained:
[1] = test system: Cryptococcus neoformans; assay: Antimicrobial activity against Cryptococcus neoformans serotype A; format: functional
[2] = test system: Streptomyces platensis; assay: Antimicrobial activity against Streptomyces platensis at 8 to 32 ug/ml; format: functional
[3] = test system: Aspergillus fumigatus; assay: Antimicrobial activity against Aspergillus fumigatus at 8 to 32 ug/ml; format: functional, organism-based
[4] = test system: Burkholderia sp.; assay: Antimicrobial activity against Burkholderia sp. at 8 to 32 ug/ml; format: functional
[5] = test system: Cryptococcus neoformans; assay: Antimicrobial activity against Cryptococcus neoformans serotype D; format: functional

Which MIC [1] does the source give for `OC(Cn1cncn1)(Cn1cncn1)c1ccc(F)cc1F` [FLUCONAZOLE] here?
Its MIC is at least 64 µg/mL.

And the Activity [2]?
The Activity was “inactive”.

And the Activity [3]?
The Activity was “inactive”.

What about the Activity [4] of the same compound?
The Activity was “inactive”.

And the MIC [5]?
The MIC was at least 64 µg/mL.
